Test results taken from ChEMBL document CHEMBL1201862, “PubChem BioAssay data set” (2004).
Active and inactive are the calls of the source.

What was measured:
[1] = cytotoxicity in HepG2 cells, dose response, cytotoxicity control, cell-based, plate reader, dry powder (AID 651947); assay type: functional
[2] = HEK293T cell cytotoxicity, dose response, cytotoxicity control, CellTiter-Glo luminescence, dry powder, set 6 (AID 651949); assay type: functional, cell-based; settings: HEK293
Genome polyprotein = Genome polyprotein (Hepatitis C virus, UniProt Q2Q167); assay: HCV core protein dimerization inhibitors, dose response, biochemical, TR-FRET (AID 2159); set-up: species or system Hepacivirus hominis;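 also: blocks dimerization of HCV core protein measured by TR-FRET between tagged core106 pairs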
Sequence of Genome polyprotein (Q2Q167 whole entry): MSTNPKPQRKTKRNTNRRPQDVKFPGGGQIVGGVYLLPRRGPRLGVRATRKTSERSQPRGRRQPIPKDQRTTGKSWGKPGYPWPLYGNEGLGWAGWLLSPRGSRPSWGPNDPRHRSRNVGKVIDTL

Leucine aminopeptidase = molecular target: T1, Leucine aminopeptidase (Plasmodium falciparum 3D7, UniProt Q8IL11); assay: P. falciparum M17LAP inhibitors, primary screen, biochemical, fluorogenic H-Leu-NHMec substrate, 1536-well (AID 1619); assay type: functional
T1 sequence (Q8IL11 whole entry): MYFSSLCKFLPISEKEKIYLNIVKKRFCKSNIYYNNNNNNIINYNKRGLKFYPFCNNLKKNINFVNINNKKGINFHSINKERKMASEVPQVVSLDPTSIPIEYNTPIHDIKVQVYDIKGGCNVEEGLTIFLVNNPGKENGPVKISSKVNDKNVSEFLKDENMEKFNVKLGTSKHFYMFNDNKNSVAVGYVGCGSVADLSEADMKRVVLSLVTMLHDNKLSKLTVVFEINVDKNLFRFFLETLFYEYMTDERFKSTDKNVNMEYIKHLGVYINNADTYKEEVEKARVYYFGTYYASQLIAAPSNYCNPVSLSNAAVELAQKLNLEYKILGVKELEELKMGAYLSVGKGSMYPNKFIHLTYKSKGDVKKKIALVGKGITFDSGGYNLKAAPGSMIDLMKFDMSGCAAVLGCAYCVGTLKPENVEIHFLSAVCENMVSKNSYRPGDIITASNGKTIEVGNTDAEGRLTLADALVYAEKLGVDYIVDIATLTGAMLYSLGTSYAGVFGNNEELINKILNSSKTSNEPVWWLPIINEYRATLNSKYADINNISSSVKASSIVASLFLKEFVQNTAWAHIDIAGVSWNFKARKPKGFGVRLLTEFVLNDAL

BJ [3] = assay: cytotoxicity toward BJ-TERT fibroblasts, dose response, cell-based, RAS-independent, luminescence (AID 1933); assay type: functional; settings: Homo sapiens
BJ [4] = assay: cells; assay type: functional, cell-based; settings: Homo sapiens
BJ [5] = assay: cytotoxicity toward BJ-TERT-LT-ST fibroblasts, dose response, cell-based, RAS-independent, luminescence (AID 1935); assay type: functional; settings: Homo sapiens;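 also: BJ fibroblasts immortalized with TERT plus LT and ST oncogenes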
[6] = cytotoxicity toward DRD oncogenic fibroblasts, dose response, cell-based, non-viral oncogenic, luminescence (AID 1934); assay type: functional; settings: Homo sapiens
Galanin receptor type 3 = molecular target: T2, Galanin receptor type 3 (Homo sapiens, UniProt O60755); assay: Fluorescence-based cell-based primary high throughput dose response assay to identify antagonists of the Galanin Receptor 3 (GalR3).; assay type: functional
T2 sequence (O60755 whole entry): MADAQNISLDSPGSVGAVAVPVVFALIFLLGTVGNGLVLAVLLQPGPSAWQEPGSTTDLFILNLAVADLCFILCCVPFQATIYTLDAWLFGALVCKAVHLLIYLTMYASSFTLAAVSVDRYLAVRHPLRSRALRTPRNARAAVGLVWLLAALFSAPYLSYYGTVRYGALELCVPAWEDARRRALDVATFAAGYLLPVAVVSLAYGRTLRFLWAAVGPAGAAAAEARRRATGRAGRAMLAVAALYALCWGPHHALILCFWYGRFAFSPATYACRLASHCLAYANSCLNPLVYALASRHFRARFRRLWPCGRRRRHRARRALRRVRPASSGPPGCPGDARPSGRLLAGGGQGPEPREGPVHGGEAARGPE

cells [7] = assay type: functional, cell-based; settings: HEK-CNG
[8] = HepG2 cell cytotoxicity, dose response, cytotoxicity control, ATP luminescence, cherry-pick, set 6 (AID 1053125); assay type: functional, cell-based
cells [9] = settings: A549
cells [10] = settings: HEK293
[11] = molecular target: Heat shock protein HSP 90-alpha (Homo sapiens, UniProt P07900); assay: Luminescence-based dose response biochemical high throughput screening assay for inhibitors of the Heat Shock Protein 90 (HSP90). [Related pubchem assays: 1831 (Summary AID.), 1846 (Confirmation screen.), 1789 (Primary screen.)]
Cytochrome P450 3A4 = Cytochrome P450 3A4 (Homo sapiens, UniProt P08684);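 also: CYP3A4 tested as one member of a cytochrome P450 panel screen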
Sequence of Cytochrome P450 3A4 (P08684 whole entry): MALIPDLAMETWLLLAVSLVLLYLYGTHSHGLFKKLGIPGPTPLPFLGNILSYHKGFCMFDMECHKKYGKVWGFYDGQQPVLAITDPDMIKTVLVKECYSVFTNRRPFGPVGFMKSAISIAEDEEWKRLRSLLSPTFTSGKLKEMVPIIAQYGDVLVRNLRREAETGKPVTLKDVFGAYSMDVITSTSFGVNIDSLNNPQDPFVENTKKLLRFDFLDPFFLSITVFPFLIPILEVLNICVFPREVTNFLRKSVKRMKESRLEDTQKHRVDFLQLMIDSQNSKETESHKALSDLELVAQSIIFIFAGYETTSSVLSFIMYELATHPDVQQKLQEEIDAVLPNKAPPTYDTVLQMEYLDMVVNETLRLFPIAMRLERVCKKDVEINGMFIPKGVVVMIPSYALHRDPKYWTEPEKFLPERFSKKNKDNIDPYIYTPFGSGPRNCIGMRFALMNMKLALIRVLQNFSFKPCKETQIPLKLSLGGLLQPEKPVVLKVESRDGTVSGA

[12] = inhibitors of LMP1-driven NF-kB reporter, dose response, cell-based, EBV LMP1, luciferase, dry powder, set 2 (AID 624361); assay type: functional
[13] = molecular target: NAD-dependent protein deacylase sirtuin-5, mitochondrial (Homo sapiens, UniProt Q9NXA8); assay: SIRT5 deacylase inhibitors, dose response, biochemical, fluorescence imaging, cherry-pick, set 6 (AID 720597)
Sequence of NAD-dependent protein deacylase sirtuin-5, mitochondrial (Q9NXA8 whole entry): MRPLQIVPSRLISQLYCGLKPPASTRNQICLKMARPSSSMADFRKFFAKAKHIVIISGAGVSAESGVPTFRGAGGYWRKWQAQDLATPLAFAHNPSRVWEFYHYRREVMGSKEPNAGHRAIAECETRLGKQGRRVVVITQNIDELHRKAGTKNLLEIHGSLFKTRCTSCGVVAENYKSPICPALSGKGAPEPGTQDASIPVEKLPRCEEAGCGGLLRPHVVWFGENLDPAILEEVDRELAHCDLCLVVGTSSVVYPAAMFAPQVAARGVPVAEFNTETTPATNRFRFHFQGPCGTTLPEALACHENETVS

[14] = P. falciparum 3D7-ScDHODH growth inhibitors, dose response, SYBR Green, dry powder samples (AID 1159570); assay type: functional, cell-based;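 also: parasite growth measured after 72 hours of compound exposure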
[15] = HepG2 cell cytotoxicity, dose response, cytotoxicity control, plate reader, dry powder samples (AID 1159569); assay type: functional, cell-based;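 also: inhibitor potency with signal falling toward the positive control level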
[16] = P. falciparum Dd2 growth inhibitors, dose response, SYBR Green, cherry-picked samples (AID 1159567); assay type: functional, cell-based
[17] = P. falciparum Dd2 growth inhibitors, dose response, SYBR Green, dry powder samples (AID 1159566); assay type: functional, cell-based;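 also: potency for growth inhibition with lower SYBR green DNA signal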
[18] = Plasmodium falciparum Dd2 Sybr green parasite growth Measured in Cell-Based and Microorganism Combination System Using Plate Reader - 2153-01_Inhibitor_Dose_DryPowder_Activity_Set3.; assay type: functional
[19] = P. falciparum ATP4 D1247Y mutant growth inhibitors, dose response, NITD609-resistant line, SYBR Green, dry powder (AID 1159571); assay type: functional, cell-based;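 also: parasites synchronized at ring stage by sorbitol before testing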
Vero [20] = assay: cells; assay type: functional, cell-based; settings: Chlorocebus sabaeus
Vero [21] = assay: cells; assay type: functional; settings: Chlorocebus sabaeus
[22] = A Cell-Based Counter Screen testing Compounds that Inhibit VEEV TC-83, in strain KU V3526.; assay type: functional
[23] = A Cell-Based Confirmatory Screen for Compounds that Inhibit VEEV, TC-83 (8).; assay type: functional
[24] = A Cell-Based Confirmatory Screen for Compounds that Inhibit VEEV, TC-83 (2).; assay type: functional
[25] = inhibitors of non-replicating M. tuberculosis, dose response, luciferase, dry powder (AID 651619); assay type: functional; settings: Mycobacterium tuberculosis
[26] = inhibitors of non-replicating M. tuberculosis, dose response, luciferase, dry powder (AID 651620); assay type: functional; settings: Mycobacterium tuberculosis

In the case of [O-][S+](Cc1cn(Cc2ccc(F)cc2)nn1)c1nnc(-c2ccc(Cl)cc2)o1 (stereo not given), the AC50 [1] is reported as 15.1 µM (active) and the AC50 [2] is reported as 17.2 µM (active).

With COc1ccc(C(=O)NC(=S)Nc2ccc3[nH]c(=O)[nH]c3c2)c(OC)c1 the IC50 (Genome polyprotein) was > 49.8 µM (not active).

For COc1ccc(N2C(C)=CC(=Cc3sc4ccccc4[n+]3C)C=C2C)cc1, the IC50 (Leucine aminopeptidase) was 60.3 µM (active), the EC50 (BJ [3]) was 0.359 µM (inconclusive) and the EC50 (BJ [4]) was 1.38 µM (active). For the same molecule, the EC50 (BJ [5]) was 4 µM (inconclusive), the EC50 [6] was 2.06 µM (inconclusive) and the IC50 (Galanin receptor type 3) was 0.246 µM (active). The EC50 (cells [7]) was > 29.9 µM (inactive), the AC50 [8] was 14.3 µM (active) and the AC50 (cells [9]) was 0.315 µM (active). The AC50 (cells [10]) was 3.36 µM (active).

In the case of CCOC(=O)C1CCCN(C(=O)c2sc3nc(-c4ccc(OC)cc4)cn3c2C)C1 (stereo not given), the IC50 [11] is reported as 5.85 µM (active) and the AC50 (Cytochrome P450 3A4) is reported as 14.1 µM (inconclusive).

In the case of Cc1noc(C)c1S(=O)(=O)Nc1ccc2c(c1)C(=O)N([C@@H](C)CO)C[C@@H](C)[C@@H](CN(C)Cc1ccc(C(F)(F)F)cc1)OCCCC[C@@H](C)O2, the AbsAC35 [12] is reported as 38.34 µM and the AC50 [13] is reported as > 15 µM (inactive).

In the case of CC(C)NC(=O)N1[C@H](C#N)[C@H](c2ccc(C#CC3CCCC3)cc2)[C@@H]1CO, the AC50 [14] is reported as 3.52 µM (active), the AC50 [15] is reported as 36.7 µM (active) and the AC50 [16] is reported as 0.803 µM (active). The AC50 [17] was 0.684 µM (active), the AC50 [18] was 0.845 µM (active) and the AC50 [19] was 0.887 µM (active).

With O=c1nc(Nc2ccc(OCc3ccccc3)cc2)sc2ncccc12 the IC50 (Vero [20]) was 2.86 µM (active), the CC50 (Vero [21]) was > 25 µM (active) and the IC50 [22] was 2.38 µM (active). The IC50 [23] was 0.94 µM (active) and the IC50 [24] was 2.79 µM (active).

With COc1ccccc1-c1nnc(SCc2ccccn2)o1 the IC90 [25] was 31 µM (active) and the IC90 [26] was 31 µM (active).
